18 compounds from ChEMBL document CHEMBL1149799, “Bioactive peroxides as potential therapeutic agents” (Eur J Med Chem, 2008) can be followed below.

A word on the IC50: it is the concentration needed to halve the response being measured. Higher therefore signals weaker potency. As usually defined, the inhibition is how much of the control response was suppressed.

One assay deals with HCT-116. The assay is described as follows: Cytotoxicity against human HCT116 cells. Format: functional, cell-based.
A further assay deals with HT-29. Kind of assay: Cytotoxicity against human HT29 cells. The class given is functional, cell-based. The settings on record: Homo sapiens, HT-29.
The next assay has as its system A549. The assay is described as follows: Cytotoxicity against human A549 cells. Format: functional, cell-based. The settings on record: Homo sapiens, A549.
In a further assay the test system is MDA-MB-231. Kind of assay: Cytotoxicity against human MDA-MB-231 cells. The class given is functional, cell-based.
In assay [1] the test system is P388. The assay is described as follows: Cytotoxicity against mouse P388 cells at 0.05 ug/ml. The class given is functional.
For another assay, the system named is HeLa. Kind of assay: Cytotoxicity against human HeLa cells. The class given is functional, cell-based.
Another assay concerns DU-145. The assay is described as follows: Cytotoxicity against human DU145 cells. Format: functional, cell-based. Particulars: Homo sapiens, DU-145.
Assay [2] is described as follows: Cytotoxicity against human MEL28 cells. The settings on record: SK-MEL-28.
The test system of assay [3] is P388. Kind of assay: Cytotoxicity against mouse P388 cells. The class given is functional, cell-based. The settings on record: Mus musculus, P388.
For a further assay, the system named is KB. Kind of assay: Cytotoxicity against human KB cells. The class given is functional, cell-based. Particulars: Homo sapiens, KB.
In the next assay the test system is L1210. Kind of assay: Cytotoxicity against mouse L1210 cells. The class given is functional, cell-based. Particulars: Mus musculus, L1210.

Each structure is given as a SMILES string. ≈ marks a conversion by molar mass, not a printed value.

`CC(CCCCCCCCc1ccccc1)CC(C)C[C@@]1(C)C[C@](C)(CC(=O)O)OO1` (stereo partly specified) [EPIPLAKINIC ACID G] registered an IC50 in the assay on HCT-116 of 0.16 µM.

`CCCCC(CC)CC(C)C[C@]1(CC)C[C@H](CC)[C@H](CC(=O)O)OO1` (stereo partly specified) [PLAKORITIDE Q]: the values for the IC50 with HT-29, in the assay on A549 and in the assay on MDA-MB-231 were 3.9 µM, 3.6 µM and 9 µM, respectively.

In the assay on P388 [1], `C/C=C/C=C/CCCCCCC[C@]1(OC)C=C[C@H](CC(=O)OC)OO1` gave an inhibition at 0.05 µg/mL of 50%.

As to `C[C@H](C(=O)O)[C@@H]1CC[C@@](C)(CC[C@@]2(C)C3=CCCC(C)(C)[C@@H]3CC[C@H]2C)OO1` [MYCAPEROXIDE H], the midpoint of inhibition in the assay with HeLa, the IC50, lay at 0.8 µg/mL (≈ 2.04 µM).

In turn, `CC(CCCCCCCCc1ccccc1)CC(C)C[C@]1(C)C[C@](C)(CC(=O)O)OO1` (stereo partly specified) [EPIPLAKINIC ACID H] gave an IC50 in the assay with HCT-116 of 0.39 µM.

Take `CCCCC(CC)CC(C)C[C@]1(CC)C[C@H](CC)[C@H](CC(=O)OC)OO1` (stereo partly specified) [PLAKORITIDE Q ME]: the IC50 in the assay on HT-29 was 13 µM; in the assay on A549 it was 7.8 µM; with MDA-MB-231 it was 18.4 µM.

Take `C=CCCC/C=C/C=C\CCCCCCCC[C@H]1CC[C@H]([C@@H]2CC[C@@H](CC(=O)[O-])OO2)O1.[Na+]` [STOLONOXIDE D]: the IC50 in the assay with HT-29 is 0.05 µg/mL; in the assay with DU-145, 0.1 µg/mL; with A549 it was 0.1 µg/mL; in [2], 0.1 µg/mL; in the assay with P388 [3], 0.5 µg/mL.

As to `C=CCC/C=C\C=C/CCCCCCCC[C@H]1CC[C@H]([C@@H]2CC[C@@H](CC(=O)OC)OO2)O1`, the IC50 in the assay with HT-29 is 0.05 µg/mL; with DU-145, 0.1 µg/mL (≈ 0.223 µM); with A549 it was 0.1 µg/mL; in assay [2], 0.5 µg/mL (≈ 1.11 µM); in the assay on P388 [3], 0.5 µg/mL (≈ 1.11 µM).

Regarding `CCCCCCCCCCCCCCC[C@@]1(OC)C=C[C@H](CC(=O)OC)OO1` [PLAKORIN], the IC50 was 1.8 µg/mL (≈ 4.52 µM) with KB and 0.85 µg/mL (≈ 2.13 µM) in the assay on L1210. The compound further showed an inhibition at 0.05 µg/mL in the assay on P388 [1] of 50%.

Take `C/C=C/CCCCCCCCC[C@]1(OC)C=C[C@H](CC(=O)OC)OO1`: in the assay on P388 [1], at 0.05 µg/mL the inhibition was 50%.

As for `C=CCCC/C=C/C=C\CCCCCCCC[C@H]1CC[C@H]([C@@H]2CC[C@@H](CC(=O)OC)OO2)O1`, the IC50 came to 0.05 µg/mL with HT-29; 0.1 µg/mL (≈ 0.216 µM) in the assay on DU-145; 0.01 µg/mL with A549; 0.1 µg/mL (≈ 0.216 µM) in assay [2]; 0.01 µg/mL (≈ 0.0216 µM) in the assay on P388 [3].

For the compound `CC/C=C/C(CC)CC(C)C[C@]1(CC)C[C@H](CC)[C@H](CC(=O)OC)OO1` (stereo partly specified), the concentration for half-maximal inhibition (IC50) was determined as 12.8 µM in the assay with HT-29, 6.8 µM with A549 and 4.1 µM in the assay on MDA-MB-231.

For the compound `C=CCC/C=C\C=C/CCCCCCCC[C@@H]1CC[C@@H]([C@@H]2CC[C@@H](CC(=O)OC)OO2)O1`, the IC50 with HT-29 was 0.1 µg/mL; with DU-145, 0.1 µg/mL (≈ 0.223 µM); with A549, 0.1 µg/mL; in assay [2], 0.1 µg/mL (≈ 0.223 µM); with P388 [3], 0.05 µg/mL (≈ 0.111 µM).

For `C=CCC/C=C\C=C/CCCCCCCC[C@H]1CC[C@H]([C@@H]2CC[C@@H](CC(=O)[O-])OO2)O1.[Na+]` [stolonoxide C], the IC50 in the assay with HT-29 is 0.1 µg/mL; in the assay on DU-145 it was 0.1 µg/mL; in the assay with A549, 0.1 µg/mL; in assay [2], 0.5 µg/mL; in the assay with P388 [3], 0.5 µg/mL.

On to `C=CCC/C=C\C=C/CCCCCCCC[C@@H]1CC[C@@H]([C@@H]2CC[C@@H](CC(=O)[O-])OO2)O1.[Na+]`, for which the IC50 in the assay on HT-29 worked out at 0.1 µg/mL; in the assay on DU-145, 0.1 µg/mL; with A549, 0.1 µg/mL; in assay [2], 0.1 µg/mL; in the assay on P388 [3] it was 0.01 µg/mL.

As to `CCCC(CC)CC(C)C[C@]1(CC)C[C@H](CC)[C@H](CC(=O)OC)OO1` (stereo partly specified), the IC50 in the assay with HT-29 amounted to 12.3 µM; with A549, 14 µM; in the assay with MDA-MB-231, 24.4 µM.

In the case of `C=CCCC/C=C/C=C\CCCCCCCC[C@H]1CC[C@@H]([C@H]2CC[C@@H](CC(=O)O)OO2)O1` [STOLONOXIDE B], the IC50 with HT-29 worked out at 0.1 µg/mL; in the assay on DU-145 it was 0.1 µg/mL (≈ 0.223 µM); in the assay with A549, 0.1 µg/mL; in assay [2] it was 0.1 µg/mL (≈ 0.223 µM); with P388 [3], 0.05 µg/mL (≈ 0.111 µM).

In the assay on P388 [1], `C/C=C/C=C/CCCCCCCCC[C@]1(OC)C=C[C@H](CC(=O)OC)OO1` registered an inhibition at 0.05 µg/mL of 50%.
